Read-outs that look alike come from different tables or passages of the source.
Tests used:
GvHD = experiment: Preclinical mouse model of allo-HCT (GvHD); assay type: in vivo, Balb/c recipient mice
Source text: To determine the potential of WU4 and WU8 in preventing GvHD, we performed allo-HCT in which 5 × 10^6 T cell-depleted bone marrow (TCD-BM; CD45.1+) and 5 × 10^5 splenic pan T cells (CD45.2+) obtained from B6 mice were transplanted into lethally irradiated (900 cGy on day −1) Balb/c allogeneic recipient mice on day 0. […]. […] Among monocyte subsets, we only considered classical (LyG6^−CD11b^+Ly6C^high) and intermediate monocytes (LyG6^−CD11b^+Ly6C^middle) as APCs, excluding non-classical monocytes (LyG6^−CD11b^+Ly6C^low) due to their anti-inflammatory function, which downregulates antigen presentation during inflammation. […]
Figure 5 In vivo administration of WU4 and WU8 reduces GvHD by increasing % of Tregs while suppressing % of APCs and costimulatory proteins on APCs after allo-HCT. Allo-HCT was performed as follows: 5 × 10^6 TCD-BM (CD45.1+) and 5 × 10^5 splenic T cells (CD45.2+) obtained from B6 mice were transplanted on day 0 into lethally irradiated (900 cGy on day −1) Balb/c allogeneic recipient mice. TCD-BM-only group served as a no-GvHD control. […] (A,B) The mice were monitored for survival and GvHD signs. (C–F) Whole splenocytes were analyzed for % of Tregs, recipient/BM-derived APCs, and CD80-expressing APCs on day 6 after allo-HCT. LyG6^−CD11b^+Ly6C^high and LyG6^−CD11b^+Ly6C^middle served as classical and intermediate monocyte subsets. NT: neutrophils. * p < 0.05, ** p < 0.01, and *** p < 0.001. All error bars are represented as mean ± standard deviation.
Allo-HCT was performed as previously described. Briefly, BALB/c mice were used as recipients and received 9 Gy total body irradiation on day −1, then were transplanted with 5 × 10^6 T cell-depleted bone marrow (TCD-BM) cells from B6 (CD45.1+) mice along with 0.5 × 10^6 splenic T cells from B6 (CD45.2+) mice on day 0. Mouse TCD-BM and splenic T cells were prepared using an EasySep mouse CD90.2 positive selection kit II and an EasySep mouse T cell isolation kit ([…] Technologies, Cambridge, MA, USA), respectively.
GvHD clinical scores were assessed twice per week by a scoring system incorporating five clinical criteria: weight loss (diarrhea scored 1 regardless of weight change), posture (hunching), mobility, fur texture, and skin integrity, as previously described. Individual mice were scored from 0 to 2 for each criterion and were sacrificed with GvHD scores of 6 or above, following our approved animal protocol.
T cells from in vitro primary murine T cell culture, fresh peripheral blood, or whole splenocytes were analyzed according to cell surface and intracellular markers. Surface markers were directly stained with flow antibodies for 20 min at 4 °C. For intracellular staining (FOXP3 and T-bet), cells were fixed and permeabilized after surface staining using appropriate buffers (One-step intracellular nuclear protein staining protocol, eBioscience, San Diego, CA, USA) and stained with flow antibodies. The antibodies used for flow cytometric analyses for mouse cells were as follows: FOXP3, T-BET, and CD183 (eBioscience, San Diego, CA, USA); CD3, H2-Kb, H2-Kd, CD4, B220, CD11b, CD11c, Ly6C, and DEC205 (BioLegend, San Diego, CA); and CD8, CD45.2, CD80, and Ly6G (BD Pharmingen, San Jose, CA, USA). All cells were run on a ZE5 Cell Analyzer (BD Biosciences, Mountain View, CA, USA) or Attune® NxT (Thermofisher Scientific, Waltham, MA, USA) and analyzed with the FlowJo software, version 10.9.0 (FlowJo LLC., Ashland, OR, USA).

[1] = human; cited from earlier work
[2] = cited from earlier work; for terminal plasma half-life: human
TYK2 = TYK2 (Homo sapiens, UniProt P29597); experiment: Z'-LYTE enzyme activity assay (SelectScreen Kinase Profiling), TYK2
PKN1 = conditions: murine and human whole-kinome analyses; cited from earlier work
JAK2 = JAK2 (Homo sapiens, UniProt O60674); experiment: Z'-LYTE enzyme activity assay (SelectScreen Kinase Profiling), JAK2
JAK3 = molecular target: T1, JAK3 (Homo sapiens, UniProt P52333); experiment: Z'-LYTE enzyme activity assay (SelectScreen Kinase Profiling), JAK3
T1 sequence (P52333 1-1124): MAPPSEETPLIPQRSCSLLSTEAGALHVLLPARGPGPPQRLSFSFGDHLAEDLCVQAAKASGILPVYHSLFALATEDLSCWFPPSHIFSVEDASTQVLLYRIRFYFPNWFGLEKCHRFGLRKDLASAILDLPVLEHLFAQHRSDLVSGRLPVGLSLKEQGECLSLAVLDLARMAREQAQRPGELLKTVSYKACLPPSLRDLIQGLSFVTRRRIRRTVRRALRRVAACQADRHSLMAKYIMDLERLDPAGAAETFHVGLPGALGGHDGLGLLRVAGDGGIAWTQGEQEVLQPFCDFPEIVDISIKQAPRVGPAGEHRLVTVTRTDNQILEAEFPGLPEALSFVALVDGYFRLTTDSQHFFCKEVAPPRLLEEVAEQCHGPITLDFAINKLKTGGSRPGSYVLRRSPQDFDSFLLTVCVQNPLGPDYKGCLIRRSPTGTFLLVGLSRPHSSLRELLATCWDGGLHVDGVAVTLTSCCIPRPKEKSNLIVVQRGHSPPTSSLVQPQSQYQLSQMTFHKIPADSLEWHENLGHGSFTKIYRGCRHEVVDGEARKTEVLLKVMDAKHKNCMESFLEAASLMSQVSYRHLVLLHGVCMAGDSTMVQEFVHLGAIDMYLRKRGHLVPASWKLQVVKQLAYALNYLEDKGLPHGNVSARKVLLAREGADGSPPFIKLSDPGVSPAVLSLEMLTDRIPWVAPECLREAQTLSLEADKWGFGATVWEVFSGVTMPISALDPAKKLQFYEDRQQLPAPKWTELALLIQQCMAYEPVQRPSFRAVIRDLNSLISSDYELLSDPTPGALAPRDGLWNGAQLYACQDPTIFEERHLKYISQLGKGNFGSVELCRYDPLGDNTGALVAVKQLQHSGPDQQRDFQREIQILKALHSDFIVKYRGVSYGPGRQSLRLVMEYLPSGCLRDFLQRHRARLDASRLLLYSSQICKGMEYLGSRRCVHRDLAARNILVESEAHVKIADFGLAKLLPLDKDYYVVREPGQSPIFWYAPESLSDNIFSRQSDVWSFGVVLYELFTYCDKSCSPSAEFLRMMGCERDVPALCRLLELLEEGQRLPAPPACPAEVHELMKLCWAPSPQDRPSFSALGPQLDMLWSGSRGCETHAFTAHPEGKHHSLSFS

JAK1 = JAK1 (Homo sapiens, UniProt P23458); experiment: Z'-LYTE enzyme activity assay (SelectScreen Kinase Profiling), JAK1
[3] = Mouse PK after subcutaneous injection; assay type: in vivo; conditions: 2 mg/kg s.c., CD-1 mice, time points up to 6 h; WU derivatives compared to BARI
[4] = Human liver microsome (HLM) assay; assay type: in vitro ADME; conditions: incubations with human liver microsomes
Experimental: Subsequently, we assessed the in vitro metabolic stability and clearance values of WU derivatives in an HLM assay.
(A,B) Mouse PK following subcutaneous administration of WU derivatives (2 mg/kg) to CD-1 mice. […] All error bars are represented as mean ± standard deviation.
Mouse PK and in vitro human liver microsome (HLM) assay studies were conducted by Charles River Laboratories, Inc. (Wilmington, MA, USA). Briefly, male CD-1 mice were used in mouse PK studies. […] At 24 h, no drug levels were detected in plasma for any of the compounds tested. In addition, WU derivatives were evaluated in an in vitro HLM assay to determine the intrinsic human liver microsomal clearance values of compounds in incubations with human liver microsomes.

[5] = 4 mg/kg s.c. once daily for 3 weeks from day 3, vs vehicle control
[6] = 20 mg/kg s.c. once daily for 3 weeks from day 3, vs vehicle control
[7] = dose not given, vs vehicle control

Chain of JAK2 (O60674 whole entry): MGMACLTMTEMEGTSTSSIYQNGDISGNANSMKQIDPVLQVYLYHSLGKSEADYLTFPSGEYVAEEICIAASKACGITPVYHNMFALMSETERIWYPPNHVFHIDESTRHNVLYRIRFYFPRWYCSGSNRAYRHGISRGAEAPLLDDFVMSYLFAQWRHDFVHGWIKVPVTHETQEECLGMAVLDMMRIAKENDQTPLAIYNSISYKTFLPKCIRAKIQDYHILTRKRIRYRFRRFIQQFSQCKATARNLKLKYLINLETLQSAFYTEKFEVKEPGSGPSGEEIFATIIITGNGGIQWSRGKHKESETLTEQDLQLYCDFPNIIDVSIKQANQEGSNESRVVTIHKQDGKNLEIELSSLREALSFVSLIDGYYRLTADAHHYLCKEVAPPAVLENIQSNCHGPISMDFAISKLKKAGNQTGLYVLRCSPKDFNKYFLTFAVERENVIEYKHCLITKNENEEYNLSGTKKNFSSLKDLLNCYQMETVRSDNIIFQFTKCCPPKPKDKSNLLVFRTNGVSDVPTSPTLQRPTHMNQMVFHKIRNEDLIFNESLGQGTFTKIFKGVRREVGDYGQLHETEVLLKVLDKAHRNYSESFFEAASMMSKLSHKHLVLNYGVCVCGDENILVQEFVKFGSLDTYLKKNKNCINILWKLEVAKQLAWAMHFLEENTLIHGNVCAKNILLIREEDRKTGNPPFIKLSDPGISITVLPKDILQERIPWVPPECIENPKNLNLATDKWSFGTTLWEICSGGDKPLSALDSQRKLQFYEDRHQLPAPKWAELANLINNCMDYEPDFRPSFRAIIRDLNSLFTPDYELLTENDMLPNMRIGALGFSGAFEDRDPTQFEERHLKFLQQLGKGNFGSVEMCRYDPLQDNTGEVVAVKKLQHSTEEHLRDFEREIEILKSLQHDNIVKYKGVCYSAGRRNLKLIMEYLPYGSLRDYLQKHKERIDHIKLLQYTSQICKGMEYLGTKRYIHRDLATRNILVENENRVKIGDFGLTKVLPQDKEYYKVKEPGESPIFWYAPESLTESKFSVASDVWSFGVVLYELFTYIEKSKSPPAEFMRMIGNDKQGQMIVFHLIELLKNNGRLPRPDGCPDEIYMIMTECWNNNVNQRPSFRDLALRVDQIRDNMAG
Chain of TYK2 (P29597 whole entry): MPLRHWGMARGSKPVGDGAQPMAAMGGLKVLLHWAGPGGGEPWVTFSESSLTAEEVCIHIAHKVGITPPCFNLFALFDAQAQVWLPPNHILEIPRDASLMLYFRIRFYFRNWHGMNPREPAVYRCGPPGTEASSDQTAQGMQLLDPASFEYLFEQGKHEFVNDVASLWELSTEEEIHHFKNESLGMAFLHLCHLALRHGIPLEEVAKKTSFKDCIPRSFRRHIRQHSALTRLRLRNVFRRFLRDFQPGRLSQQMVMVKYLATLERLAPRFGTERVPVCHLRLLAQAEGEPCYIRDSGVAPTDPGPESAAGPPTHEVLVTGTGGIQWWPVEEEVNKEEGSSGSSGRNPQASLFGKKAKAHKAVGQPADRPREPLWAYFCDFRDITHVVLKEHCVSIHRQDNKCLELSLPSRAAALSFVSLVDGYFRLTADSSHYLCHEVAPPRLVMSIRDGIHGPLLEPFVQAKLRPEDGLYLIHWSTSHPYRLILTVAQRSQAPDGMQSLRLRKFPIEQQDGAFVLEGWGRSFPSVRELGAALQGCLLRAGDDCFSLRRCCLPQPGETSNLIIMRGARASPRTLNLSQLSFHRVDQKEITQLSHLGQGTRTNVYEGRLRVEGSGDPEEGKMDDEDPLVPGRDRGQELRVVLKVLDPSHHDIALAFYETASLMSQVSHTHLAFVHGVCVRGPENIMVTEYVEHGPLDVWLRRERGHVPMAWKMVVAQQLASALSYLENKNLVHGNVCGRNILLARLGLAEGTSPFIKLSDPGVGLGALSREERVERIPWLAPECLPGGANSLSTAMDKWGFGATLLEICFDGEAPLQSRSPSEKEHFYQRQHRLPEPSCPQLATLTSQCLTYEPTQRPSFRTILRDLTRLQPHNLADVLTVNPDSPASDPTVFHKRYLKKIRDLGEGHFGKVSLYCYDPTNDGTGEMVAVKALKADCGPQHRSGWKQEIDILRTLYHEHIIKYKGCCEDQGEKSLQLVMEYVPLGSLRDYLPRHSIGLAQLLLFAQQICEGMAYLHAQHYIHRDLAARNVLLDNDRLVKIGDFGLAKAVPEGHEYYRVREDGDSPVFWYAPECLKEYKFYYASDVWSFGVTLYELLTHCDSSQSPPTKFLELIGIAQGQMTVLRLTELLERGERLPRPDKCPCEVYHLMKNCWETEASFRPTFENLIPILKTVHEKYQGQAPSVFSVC
Chain of JAK1 (P23458 whole entry): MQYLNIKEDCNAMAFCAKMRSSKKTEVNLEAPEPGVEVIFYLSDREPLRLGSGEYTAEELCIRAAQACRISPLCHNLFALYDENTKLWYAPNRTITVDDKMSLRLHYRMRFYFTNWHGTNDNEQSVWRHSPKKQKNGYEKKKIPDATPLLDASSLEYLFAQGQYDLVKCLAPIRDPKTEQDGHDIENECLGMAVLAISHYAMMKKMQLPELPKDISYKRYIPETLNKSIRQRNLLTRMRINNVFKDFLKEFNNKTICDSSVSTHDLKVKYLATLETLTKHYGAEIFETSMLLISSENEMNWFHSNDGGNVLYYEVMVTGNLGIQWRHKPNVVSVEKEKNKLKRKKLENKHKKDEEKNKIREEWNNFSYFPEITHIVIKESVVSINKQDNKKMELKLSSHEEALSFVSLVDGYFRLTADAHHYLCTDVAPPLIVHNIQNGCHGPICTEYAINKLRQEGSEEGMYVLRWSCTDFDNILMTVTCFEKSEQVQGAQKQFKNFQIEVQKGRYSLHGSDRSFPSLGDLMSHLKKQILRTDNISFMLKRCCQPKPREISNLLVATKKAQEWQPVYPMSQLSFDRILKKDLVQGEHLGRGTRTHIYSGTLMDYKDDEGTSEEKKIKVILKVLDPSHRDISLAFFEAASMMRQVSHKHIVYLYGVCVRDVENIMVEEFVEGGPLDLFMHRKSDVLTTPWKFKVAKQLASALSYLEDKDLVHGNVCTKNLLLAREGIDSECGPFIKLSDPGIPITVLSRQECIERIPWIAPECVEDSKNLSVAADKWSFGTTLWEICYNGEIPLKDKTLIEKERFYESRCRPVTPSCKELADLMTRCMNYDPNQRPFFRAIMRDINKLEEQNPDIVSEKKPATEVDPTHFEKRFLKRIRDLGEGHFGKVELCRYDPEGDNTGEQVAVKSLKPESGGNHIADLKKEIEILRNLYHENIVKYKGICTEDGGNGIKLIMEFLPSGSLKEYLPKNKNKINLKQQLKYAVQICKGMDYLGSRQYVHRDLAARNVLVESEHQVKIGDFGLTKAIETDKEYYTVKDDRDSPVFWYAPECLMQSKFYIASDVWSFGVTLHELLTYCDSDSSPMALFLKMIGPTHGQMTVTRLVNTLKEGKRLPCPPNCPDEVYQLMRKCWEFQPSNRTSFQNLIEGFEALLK

## CCS(=O)(=O)N1CC(CC#N)(n2cc(-c3ncnc4[nH]ccc34)cn2)C1 [BARI, baricitinib, reference compound]
GvHD; [5]
  clinical GvHD scores: less clinical GvHD scores
  overall survival: significantly improved survival rate
GvHD; [6]
  clinical GvHD scores: less clinical GvHD scores
  overall survival: significantly improved survival rate
[1]
  plasma protein binding: 50%
[2]; in vivo
  terminal plasma half-life: ~ 8.5 h
  metabolism (extent): very little metabolism
TYK2; IC50 TYK2, ATP at 1 mM
  IC50: 42.3 nM
TYK2; IC50 TYK2, ATP at app. Km
  IC50: 2.21 nM

## N#CC[C@H](C1CCCC1)n1cc(-c2ncnc3[nH]ccc23)cn1 [RUX, Ruxolitinib]
[1]
  plasma protein binding: 97%
[2]; RUX mostly in the liver via CYP(3A4)
  metabolism (extent): > 99%
[2]; in vivo
  terminal plasma half-life: ~ 2 h
PKN1
  inhibition of off target PKN1: not by RUX

## CCS(=O)(=O)N1CC2(C1)CC(CC#N)(n1cc(-c3ncnc4[nH]ccc34)cn1)C2 [WU1]
JAK2; IC50 JAK2, ATP at app. Km
  IC50: 8.22 nM
JAK3; IC50 JAK3, ATP at app. Km
  IC50: 60.8 nM
TYK2; IC50 TYK2, ATP at app. Km
  IC50: 29.4 nM

## CCS(=O)(=O)N1CCC12CC(CC#N)(n1cc(-c3ncnc4[nH]ccc34)cn1)C2 (stereo not drawn) [WU2]
JAK2; IC50 JAK2, ATP at app. Km
  IC50: 54.2 nM
JAK3; IC50 JAK3, ATP at app. Km
  IC50: 418 nM
TYK2; IC50 TYK2, ATP at app. Km
  IC50: 574 nM

## CCS(=O)(=O)N1CC2(CCC2(CC#N)n2cc(-c3ncnc4[nH]ccc34)cn2)C1 (stereo not drawn) [WU3]
JAK2; IC50 JAK2, ATP at app. Km
  IC50: 35.1 nM
JAK3; IC50 JAK3, ATP at app. Km
  IC50: 36.2 nM
TYK2; IC50 TYK2, ATP at app. Km
  IC50: 578 nM

## CC(C)(C)NS(=O)(=O)NC1CC2(C1)CC(CC#N)(n1cc(-c3ncnc4[nH]ccc34)cn1)C2 (stereo not drawn) [WU5]
GvHD; dose not given, day 27 after allo-HCT, vs vehicle control
  % of donor BM-derived B and T cells in the peripheral blood: increased the % of donor BM-derived B and T cells
GvHD; [7]
  clinical GvHD scores: less clinical GvHD scores
  overall survival: significantly improved overall survival
JAK1; IC50 JAK1, ATP at 1 mM
  IC50: 8.2 nM
JAK1; IC50 JAK1, ATP at app. Km
  IC50: 1.47 nM
JAK2; IC50 JAK2, ATP at 1 mM
  IC50: 9.88 nM
JAK2; IC50 JAK2, ATP at app. Km
  IC50: 0.45 nM
JAK3; IC50 JAK3, ATP at 1 mM
  IC50: 623 nM
JAK3; IC50 JAK3, ATP at app. Km
  IC50: 11.2 nM
TYK2; IC50 TYK2, ATP at 1 mM
  IC50: 58.9 nM
TYK2; IC50 TYK2, ATP at app. Km
  IC50: 3.11 nM

## CCS(=O)(=O)N1CCC2(CC1)CCC(CC#N)(n1cc(-c3ncnc4[nH]ccc34)cn1)CC2 [WU7]
[3]
  plasma drug concentration (mouse PK): significant reduction in plasma concentration at 2 h after injection
[4]
  in vitro metabolic stability in HLM: diminished HLM metabolic stability
JAK2; IC50 JAK2, ATP at 1 mM
  IC50: 13.8 nM
JAK2; IC50 JAK2, ATP at app. Km
  IC50: 0.867 nM
JAK3; IC50 JAK3, ATP at 1 mM
  IC50: 423 nM
JAK3; IC50 JAK3, ATP at app. Km
  IC50: 12.3 nM
TYK2; IC50 TYK2, ATP at 1 mM
  IC50: 275 nM
TYK2; IC50 TYK2, ATP at app. Km
  IC50: 12.1 nM

## N#CCC1(n2cc(-c3ncnc4[nH]ccc34)cn2)CS(=O)(=O)C1 [WU9]
JAK2; IC50 JAK2, ATP at 1 mM
  IC50: 9.67 nM
JAK2; IC50 JAK2, ATP at app. Km
  IC50: 0.406 nM
JAK3; IC50 JAK3, ATP at 1 mM
  IC50: 501 nM
JAK3; IC50 JAK3, ATP at app. Km
  IC50: 10.4 nM
TYK2; IC50 TYK2, ATP at 1 mM
  IC50: 34.7 nM
TYK2; IC50 TYK2, ATP at app. Km
  IC50: 2.24 nM

## CS(=O)(=O)C1CC(CC#N)(n2cc(-c3ncnc4[nH]ccc34)cn2)C1 (stereo not drawn) [WU10]
GvHD; dose not given, day 6 after allo-HCT, vs vehicle control
  % of Tregs in the spleens: significantly increased the % of Tregs
GvHD; [7]
  clinical GvHD scores: reduced GvHD
  overall survival: trend towards increased overall survival
GvHD; dose not given, whole blood, day 27 after allo-HCT
  blood cell recovery (lymphocytes and white blood cells): trend towards improvement in blood cell recovery
JAK2; IC50 JAK2, ATP at 1 mM
  IC50: 6.11 nM
JAK2; IC50 JAK2, ATP at app. Km
  IC50: 0.37 nM
JAK3; IC50 JAK3, ATP at 1 mM
  IC50: 496 nM
JAK3; IC50 JAK3, ATP at app. Km
  IC50: 13 nM
TYK2; IC50 TYK2, ATP at 1 mM
  IC50: 108 nM
TYK2; IC50 TYK2, ATP at app. Km
  IC50: 4.56 nM

Source: PMC11052071, “Novel JAK Inhibitors to Reduce Graft-Versus-Host Disease after Allogeneic Hematopoietic Cell Transplantation in a Preclinical Mouse Model” (Molecules, 2024)
